Among the data in ChEMBL document CHEMBL1122830, “N-(Phosphonoacetyl)amino phosphonates. Phosphonate analogues of N-(phosphonoacetyl)-L-aspartic acid (PALA)” (1985) are IC50 and ID50 values, retold here.

Structures are written as SMILES. Calls of active or inactive are those of the source. The calls are words filed in the database; no cut-off is given here.

One assay deals with KB. The assay can be described thus: Inhibitory activity against human KB cell line. The class given is functional. Conditions: read-out: ID50 (the source's name).
Turning to `CCOP(=O)(OCC)C(N)C(C)(C)C.O=C(O)C(=O)O` (stereo unspecified), the IC50 was determined as 240 µg/mL.

In another assay the test system is KB. The assay can be described thus: Inhibitory activity against human KB cell line at the dose range of 1-400 (ug/mL); NA=Not active. The assay is classed as functional, cell-based.
Settings: not given
In the case of `O=C(CP(=O)(O)O)NC(C1CC1)P(=O)(O)O` (stereo unspecified), the ID50 entry is “inactive”.
Same read-out and setting: the same measure for `CCOP(=O)(OCC)C(N)C1CCCCC1` (stereo unspecified): “inactive”.
As to `O=C(CP(=O)(O)O)NC(c1ccccc1)P(=O)(O)O` (stereo unspecified), the ID50 entry was “inactive”.
The same measure, in the same setting: the value for `CC(C)C(NC(=O)CP(=O)(O)O)P(=O)(O)O` (stereo unspecified) was “inactive”; that for `CCOP(=O)(OCC)C(N)C1CC1` (stereo unspecified) was “inactive”; that for `CC(C)(NC(=O)CP(=O)(O)O)P(=O)(O)O` was “inactive”.
Same read-out and setting: the same measure for `O=C(CP(=O)(O)O)NC(CP(=O)(O)O)C(=O)O` (stereo unspecified): “inactive”; for `CC(NC(=O)CP(=O)(O)O)P(=O)(O)O` (stereo unspecified): “inactive”.
Same read-out and setting: the value for `CCP(=O)(O)CNC(=O)CP(=O)(O)O` was “inactive”.
For `O=C(CP(=O)(O)O)NCCCP(=O)(O)O`, the ID50 entry is “inactive”.
On the same count and under the same terms, the same measure for `CC(C)(C)C(NC(=O)CP(=O)(O)O)P(=O)(O)O` (stereo unspecified): “inactive”.
Still for that read-out and setting: the value for `CCOP(=O)(OCC)C(N)C1CCCC1` (stereo unspecified) was “inactive”; that for `O=C(O)CCCC(NC(=O)CP(=O)(O)O)P(=O)(O)O` (stereo unspecified) was “inactive”.
On the same count and under the same terms, the value for `CCOC(=O)CCCC(N)P(=O)(OCC)OCC` (stereo unspecified) was “inactive”; that for `O=C(O)CC(NC(=O)CP(=O)(O)O)C(=O)O` (stereo unspecified) was “inactive”; that for `O=C(CP(=O)(O)O)NC(C1CCC1)P(=O)(O)O` (stereo unspecified) was “inactive”.
Consider `O=C(CP(=O)(O)O)NC(C1CCCC1)P(=O)(O)O` (stereo unspecified), for which the ID50 result was “inactive”.
Same read-out and setting: the value for `O=C(CP(=O)(O)O)NC(C1CCCCC1)P(=O)(O)O` (stereo unspecified) was “inactive”; that for `O=C(CP(=O)(O)O)NC1(P(=O)(O)O)CCCC1` was “inactive”.
`CCCC(NC(=O)CP(=O)(O)O)P(=O)(O)O` (stereo in doubt; form 1): the ID50 entry is “inactive”.
Still for that read-out and setting: the value for `CCOP(=O)(OCC)C(N)C1CCC1` (stereo unspecified) was “inactive”.
For `O=C(O)CC(NC(=O)CP(=O)(O)O)P(=O)(O)O` (stereo unspecified), the ID50 entry is “inactive”.
Still for that read-out and setting: the same measure for `CCCC(NC(=O)CP(=O)(O)O)P(=O)(O)O` (stereo in doubt; form 2): “inactive”; for `O=C(O)CCC(NC(=O)CP(=O)(O)O)P(=O)(O)O` (stereo unspecified): “inactive”.
The same measure, in the same setting: the same measure for `CCOP(=O)(OCC)C(N)CCC(=O)OC` (stereo unspecified): “inactive”.
